{"source": "patent US12618070B2", "about": "“Increasing Atoh1 life to drive sensorineural hair cell differentiation” (Massachusetts Eye and Ear Infirmary, priority 2014, dated 2026)", "format_in_all_cases": "cell-based", "key": {"Atoh1 [1]": {"tested_on": "Atoh1", "test": "Atoh1 level after proteasome inhibition in HEK cells transfected with FLAG-Atoh1", "details": "MG132 10 uM, 3 hours, vs DMSO", "procedure": "(§1) FIGS. 2A-E. Atoh1 is degraded by the ubiquitin-proteasome pathway. […] HEK cells were transfected with FLAG-Atoh1 plasmid (1 ug/ml) for 24 hours, and incubated with either DMSO or MG132 (10 uM) for 3 hours and immunoprecipitated using FLAG (Atoh1) or beta-actin (loading control) antibodies. (B) FLAG-HA-Atoh1 293T cells were treated with cycloheximide (100 ug/ml) and MG132 (10 uM) at the indicated times and immunoprecipitated with FLAG (Atoh1) or beta-actin (loading control) antibodies. Time of treatment is indicated. (C) Half-lives based on densitometry from 3 experiments are shown. The ratio of Atoh1 to β-actin was plotted after normalization. Error bars indicate SEM. (D) & (E). Atoh1 is polyubiquitylated and degraded by the ubiquitin-proteasome pathway. FLAG-HA-Atoh1 293T cells were treated with either DMSO or MG132 (10 uM) for 6 hours. Lysates were immunoprecipitated with anti-FLAG antibody and subjected to immunoblotting with a ubiquitin antibody. FLAG was used to assess immunoprecipitation.\nTo determine if the ubiquitin-proteasome pathway was involved in Atoh1 degradation, HEK cells were transfected with FLAG-Atoh1 (1 μg/ml) using Lipofectamine 2000 (Invitrogen) for […] and either DMSO or MG132 (10 μM) for […]. Transfected cells were lysed in Pierce IP Lysis Buffer (Thermo) containing 1× complete protease inhibitors and 1×PhosSTOP phosphatase inhibitors (Roche). […]"}, "Atoh1 [2]": {"tested_on": "Atoh1", "test": "Cycloheximide chase of Atoh1 with proteasome inhibitor or Huwe1 shRNA in FLAG-HA-Atoh1 293T cells", "details": "cycloheximide 100 ug/ml plus MG132 10 uM", "procedure": "as §1, with “Atoh1 is polyubiquitylated and degraded by the ubiquitin-proteasome pathway. FLAG-HA-Atoh1 293T cells were treated with either DMSO or MG132 (10 uM) for 6 hours. Lysates were immunoprecipitated with anti-FLAG antibody and subjected to immunoblotting with a ubiquitin antibody. FLAG was used to assess immunoprecipitation.” left out\nFIGS. 9A-D. Huwe1 plasmid increased and Huwe1 siRNA inhibited degradation of Atoh1. […] Quantification of Atoh1, Huwe1 and a loading control (HSC70) were performed by Western blotting and densitometry. […] Atoh1 (FLAG) and Huwe1 were analyzed by Western blotting and densitometry normalized to loading controls in three experiments. […]\nHEK cells were transfected with either FLAG-Atoh1 (wild-type), or indicated mutant FLAG-Atoh1 plasmids (1 μg/ml) using Lipofectamine 2000 (3 μl per 1 μg of cDNA, Invitrogen). […] Protein bands were quantified by densitometry. The half-lives of indicated proteins were calculated using GraphPad Prism 6 software and a one-phase exponential-decay model."}, "Atoh1 [3]": {"tested_on": "Atoh1", "test": "Polyubiquitylation of Atoh1: anti-FLAG immunoprecipitation, ubiquitin immunoblot", "details": "MG132 10 uM, 6 hours", "procedure": "as §1, with “immunoprecipitation. […]” for “immunoprecipitation.”\nWe then assessed polyubiquitylation of Atoh1 in the presence of a proteasome inhibitor which would prevent degradation of the ubiquitinated protein. […] The cell lysates were immunoprecipitated with anti-FLAG antibody, and the pattern of ubiquitylation was assessed with an anti-ubiquitin antibody."}, "Atoh1 [4]": {"tested_on": "Atoh1", "test": "Atoh1 level in P1 organ of Corti explants treated with proteasome inhibitor", "details": "P1 mouse organ of Corti, MG132 10 uM, 3 hours, vs DMSO", "procedure": "FIG. 10. Inhibition of proteasome activity stabilizes Atoh1 in the cochlea. The organ of Corti from a P1 mouse was treated with proteasome inhibitor, MG132 (10 uM) for 3 hours. Atoh1 levels were higher in the MG132-treated organ of Corti. DMSO served as control; β-actin is a loading control.\nCochlear tissues were dissected from 1-day postnatal CD-1 mice (Charles River Laboratories). Spiral ganglion, Reissner's membrane, and the hook region of the organ of Corti were removed to obtain a flat cochlear surface preparation (Parker et al., 2010). Explants were plated onto 4-well plates (Greiner Bio-One) coated with Matrigel (BD Biosciences) diluted 1:10 in DMEM supplemented with 10% fetal bovine serum overnight.\nTo test whether proteasomal activity regulated Atoh1 in the cochlea we treated P1 organ of Corti explants with proteasome inhibitor, MG132 (10 uM)."}, "FLAG-HA-Atoh1 293T cells": {"tested_on": "FLAG-HA-Atoh1 293T cells", "test": "Cycloheximide chase, half-life of Atoh1 by Western blotting and densitometry", "procedure": "FIGS. 1A-B. Atoh1 is a short-lived protein. (A) FLAG-HA-Atoh1 293T cells were treated with cycloheximide (100 ug/ml) and harvested at the indicated times. Lysates were processed for Western blotting with FLAG antibody (Atoh1) or β-actin antibody (loading control). Labels indicate the time of chase. (B) Protein half-lives based on densitometry. The ratio of Atoh1 to β-actin was plotted after normalizing to the initial ratio set to 100. Error bars indicate SEM.\nHEK cells were transfected with either FLAG-Atoh1 (wild-type), or indicated mutant FLAG-Atoh1 plasmids (1 μg/ml) using Lipofectamine 2000 (3 μl per 1 μg of cDNA, Invitrogen). Forty-eight hours after transfection, 100 μg/ml cycloheximide (Sigma) was added to block protein synthesis. Cells were harvested at 0, 30, 60, 120, and 240 minutes. Equal amounts of protein from each treatment were taken for Western blotting. Protein bands were quantified by densitometry. The half-lives of indicated proteins were calculated using GraphPad Prism 6 software and a one-phase exponential-decay model.\nTo determine the half-life of Atoh1, we used cycloheximide to prevent new protein synthesis and followed the time course of disappearance of previously synthesized Atoh1 by Western blotting during a chase period. We transfected 293T cells with FLAG-HA-Atoh1 and treated with cycloheximide at 48 hours after transfection."}}, "note": "“Also recorded” adds a separate entry of the source. Peptide text beside a SMILES is read from it. * marks the point of attachment. Cbz = O=C(OCc1ccccc1)*"}
{"molecule": "CC(C)C[C@@H](C=O)NC(=O)[C@H](CC(C)C)NC(=O)[C@H](CC(C)C)NC(=O)OCc1ccccc1", "note": "[MG132] (Cbz-Leu-Leu-Leu-aldehyde)", "values": [{"measurement": "level of Atoh1", "setting": "Atoh1 [1]", "result": "significantly increased; also recorded: stabilized Atoh1 expression"}, {"measurement": "half-life of Atoh1", "setting": "Atoh1 [2]", "result": "extended the half-life"}, {"measurement": "level of Atoh1 protein", "setting": "Atoh1 [3]; FLAG-HA-Atoh1 293T cells, reprobed blot and input protein", "result": "increased the level of protein"}, {"measurement": "density of high molecular weight poly-ubiquitin forms of Atoh1", "setting": "Atoh1 [3]; FLAG-HA-Atoh1 cells, vs DMSO", "result": "increased the density"}, {"measurement": "Atoh1 level in organ of Corti", "setting": "Atoh1 [4]", "result": "increased; also recorded: higher"}]}
{"molecule": "Atoh1: wild-type Atoh1 protein, FLAG- or FLAG-HA-tagged, expressed in HEK/293T cells (protein, left off: large carriers, wild-type Atoh1 protein, FLAG- or FLAG-HA-tagged, expressed in HEK/293T cells) MSRLLHAEEWAEVKELGDHHRQPQPHHLPQPPPPPQPPATLQAREHPVYPPELSLLDSTDPRAWLAPTLQGICTARAAQYLLHSPELGASEAAAPRDEVDGRGELVRRSSGGASSSKSPGPVKVREQLCKLKGGVVVDELGCSRQRAPSSKQVNGVQKQRRLAANARERRRMHGLNHAFDQLRNVIPSFNNDKKLSKYETLQMAQIYINALSELLQTPSGGEQPPPPPASCKSDHHHLRTAASYEGGAGNATAAGAQQASGGSQRPTPPGSCRTRFSAPASAGGYSVQLDALHFSTFEDSALTAMMAQKNLSPSLPGSILQPVQEENSKTSPRSHRSDGEFSPHSHYSDSDEAS", "values": [{"measurement": "turnover rate of Atoh1", "setting": "FLAG-HA-Atoh1 293T cells", "result": "less than 1 hour"}]}
